Source: patent US5273991A, “Imidazole-containing compositions and methods of use thereof analogs of distamycin” (Research Corporation Technologies, Inc., priority 1992, dated 1993)

Columns and labels:
[1] = system: SF-268; assay: NCI cytotoxicity screen (SRB); assay type: cell-based, human
Method: (§1) Compounds 6, 7, 9 and 10 were tested for cytotoxic properties by the National Cancer Institute, Bethesda, Md. The anticancer drug screen utilized a panel of 60 human tumor cell lines organized into subpanels representing leukemia, melanoma, and cancers of the lung, colon, kidney, ovary and central nervous system and is described by Monks et al. (1991) Journal of the National Cancer Institute 83, 757, which is incorporated herein by reference.
(§2) Cell lines were inoculated onto microtiter plates and preincubated for 24-28 hours. 100 μL aliquots of each compound were added to the appropriate microtiter plate wells in each of five 10-fold dilutions starting from a maximum concentration of 10^-4 M in water or DMSO. Cultures were then incubated for an additional 48 hours. Cells were then fixed in situ, followed by staining with sulforhodamine B (SRB), which binds to basic amino acids of cellular macromolecules. The solubilized stain was measured spectrophotometrically to determine relative cell growth or viability in treated and untreated cells. The monoimidazole analogs of Compounds 6, 7, 9 and 10 and the formamido analog corresponding to Compounds 7 and 10 are devoid of activity against the panel of cancer cell lines in Table III.

[2] = system: DLD-1; assay: NCI cytotoxicity screen (SRB); assay type: cell-based, human
Method: as §1, §2

[3] = system: SF-295; assay: NCI cytotoxicity screen (SRB); assay type: cell-based, human
Method: as §1, §2

[4] = system: SF-539; assay: NCI cytotoxicity screen (SRB); assay type: cell-based, human
Method: as §1, §2

[5] = system: MALME-3M; assay: NCI cytotoxicity screen (SRB); assay type: cell-based, human
Method: as §1, §2

[6] = system: NCI-H23; assay: NCI cytotoxicity screen (SRB); assay type: cell-based, human
Method: as §1, §2

[7] = system: NCI-H226; assay: NCI cytotoxicity screen (SRB); assay type: cell-based, human
Method: as §1, §2

[8] = system: KM20L2; assay: NCI cytotoxicity screen (SRB); assay type: cell-based, human
Method: as §1, §2

[9] = system: SW-620; assay: NCI cytotoxicity screen (SRB); assay type: cell-based, human
Method: as §1, §2

[10] = system: NCI-H460; assay: NCI cytotoxicity screen (SRB); assay type: cell-based, human
Method: as §1, §2

[11] = system: A549/ATCC; assay: NCI cytotoxicity screen (SRB); assay type: cell-based, human
Method: as §1, §2

[12] = system: Molt-4; assay: NCI cytotoxicity screen (SRB); assay type: cell-based, human
Method: as §1, §2

[13] = system: XF498; assay: NCI cytotoxicity screen (SRB); assay type: cell-based, human
Method: as §1, §2

[14] = system: DMS-114; assay: NCI cytotoxicity screen (SRB); assay type: cell-based, human
Method: as §1, §2

[15] = system: NCI-H522; assay: NCI cytotoxicity screen (SRB); assay type: cell-based, human
Method: as §1, §2

[16] = system: COLO-205; assay: NCI cytotoxicity screen (SRB); assay type: cell-based, human
Method: as §1, §2

[17] = system: DNAs [calf thymus, poly(dA dT) and poly(dG dC)]; assay: circular dichroism (CD) titration, DNAs together; assay type: binding; settings: for drug-induced CD bands, wavelength: drugs alone do not exhibit any CD spectra
Method: The DNA binding properties of the present compounds were assessed by circular dichroism (CD) titration experiments. Methods for CD titration can be found, for example, in Zimmer et al. (1986) Prog. Biophys. Molec. Biol 47, 31. The conformation of DNA can be readily determined by CD experiments, and for B-DNA, characteristic positive and negative Cotton effects are observed at 260 and 245 nm, respectively.
The interaction of Compounds 6-10 to a number of DNAs [calf thymus, poly(dA dT) and poly(dG dC)] were analyzed by CD titration studies. All the CD titration experiments were performed using identical procedures, concentrations of DNA, and increments of drug:DNA ratios (or `r`, i.e. moles of drug to moles of DNA base pairs). Therefore, the differences observed in the CD spectra for the titration of each of the compounds to the polydeoxynucleotides may be directly compared to reflect their DNA binding properties.
All experiments were performed with a continuous flow of nitrogen purging the polarimeter. A 1 mm path length jacketed cell was used and all experiments were done at room temperature. Initially, DNA [0.02 μ moles (base pairs), 130 μL] was placed in the cell and the spectrum of the DNA alone was collected. Aliquots of drug were added and the spectra collected. The drug solutions were 1 mM and amounts of the drug added correspond to a drug to base pair ratio of 0.05, 0.10, 0.15, 0.20, 0.25, 0.30, 0.40, 0.50, 0.60, 0.80, 1.00. The scan parameters were set and standard for all experiments. The spectra were collected from 400 nm to 200 nm. The sensitivity was set at 1 mdeg and the scan speed was set at 20 nm per minute. Three scans were accumulated and automatically averaged by the computer. The λmax and ellipticity (mdeg) for each spectrum were collected from the raw scans and the final plots were smoothed by the noise reduction program on the computer. […] The induced CD band is presumably due to the uv absorption π to π^* transition of the drug in the drug:DNA complex. […] Therefore interaction of these drugs with DNA causes only minor conformational changes in the double helix.

[18] = 48 h, Non-Small Cell Lung Cancer NCI-H23
[19] = 48 h, Non-Small Cell Lung Cancer NCI-H226
[20] = 48 h, Non-Small Cell Lung Cancer NCI-H460
[21] = 48 h, Non-Small Cell Lung Cancer A549/ATCC
[22] = A549/ATCC, subsequent test date
[23] = 48 h, Small Cell Lung Cancer DMS-114
[24] = 48 h, Non-Small Cell Lung Cancer NCI-H522

## CN(C)CCNC(=O)c1nc(NC(=O)c2nc(NC(=O)c3ccc(N(CCCl)CCCl)cc3)cn2C)cn1C [Compound 6, N-(N',N'-dimethylaminoethyl)-1-methyl-4-{4-[4,4-bis(2-chloroethyl)aminobenzamido]-1-methylimidazole-2-carboxamido}imidazole-2-carboxamide]
[1]; 48 h, CNS Cancer SF-268
  IC50: 50 µM
[1]; SF-268, subsequent test date
  IC50: 9.21 µM
[2]; 48 h, Colon Cancer DLD-1
  IC50: 46.6 µM
[2]; DLD-1, subsequent test date
  IC50: 55.5 µM
[3]; 48 h, CNS Cancer SF-295
  IC50: 43.6 µM
[3]; SF-295, subsequent test date
  IC50: 33.2 µM
[4]; 48 h, CNS Cancer SF-539
  IC50: 6.97 µM
[4]; SF-539, subsequent test date
  IC50: 57.3 µM
[5]; 48 h, Melanoma MALME-3M
  IC50: 6.14 µM
[5]; MALME-3M, subsequent test date
  IC50: 64.3 µM
[6]; [18]
  IC50: 47.1 µM
[6]; NCI-H23, subsequent test date
  IC50: 43.6 µM
[7]; [19]
  IC50: 62.2 µM
[7]; NCI-H226, subsequent test date
  IC50: 61.3 µM
[8]; 48 h, Colon Cancer KM20L2
  IC50: 6.77 µM
[8]; KM20L2, subsequent test date
  IC50: 20.1 µM
[9]; 48 h, Colon Cancer SW-620
  IC50: 9.95 µM
[9]; SW-620, subsequent test date
  IC50: 12 µM
[10]; [20]
  IC50: 46.1 µM
[10]; NCI-H460, subsequent test date
  IC50: 35.1 µM
[11]; [21]
  IC50: 58.8 µM
[11]; [22]
  IC50: 38.4 µM
[12]; 48 h, Leukemia Molt-4
  IC50: 18.1 µM
[12]; Molt-4, subsequent test date
  IC50: > 100 µM
[13]; XF498, subsequent test date
  IC50: 25.2 µM
[14]; [23]
  IC50: 5.83 µM
[14]; DMS-114, subsequent test date
  IC50: 4.99 µM
[15]; [24]
  IC50: 6.98 µM
[15]; NCI-H522, subsequent test date
  IC50: 5.74 µM
[16]; 48 h, Colon Cancer COLO-205
  IC50: 5.88 µM
[16]; COLO-205, subsequent test date
  IC50: 7.39 µM
[17]
  drug-induced CD bands, wavelength: 290-340 nm

## CN(C)CCNC(=O)c1nc(NC(=O)c2nc(NC(=O)c3nc(NC(=O)c4ccc(N(CCCl)CCCl)cc4)cn3C)cn2C)cn1C [Compound 7, N-(N',N'-dimethylaminoethyl)-1-methyl-4-{1-methyl-4-[4-(4,4-bis-(2-chloroethyl)aminobenzamido)-1-methylimidazole-2-carboxamido]imidazole-2-carboxamido}imidazole-2-carboxamide]
[1]; 48 h, CNS Cancer SF-268
  IC50: 0.77 µM
[2]; 48 h, Colon Cancer DLD-1
  IC50: 4.34 µM
[3]; 48 h, CNS Cancer SF-295
  IC50: 4.1 µM
[4]; SF-539, subsequent test date
  IC50: 0.59 µM
[5]; 48 h, Melanoma MALME-3M
  IC50: 2.63 µM
[5]; MALME-3M, subsequent test date
  IC50: 4.34 µM
[6]; [18]
  IC50: 0.96 µM
[6]; NCI-H23, subsequent test date
  IC50: 2.35 µM
[7]; NCI-H226, subsequent test date
  IC50: 5.54 µM
[8]; 48 h, Colon Cancer KM20L2
  IC50: 7.92 µM
[9]; 48 h, Colon Cancer SW-620
  IC50: 0.79 µM
[9]; SW-620, subsequent test date
  IC50: 0.63 µM
[10]; [20]
  IC50: 5.67 µM
[10]; NCI-H460, subsequent test date
  IC50: 4.12 µM
[11]; [21]
  IC50: 5.64 µM
[11]; [22]
  IC50: 4.12 µM
[12]; 48 h, Leukemia Molt-4
  IC50: 0.98 µM
[13]; 48 h, CNS Cancer XF498
  IC50: 0.62 µM
[13]; XF498, subsequent test date
  IC50: 0.65 µM
[14]; DMS-114, subsequent test date
  IC50: 0.54 µM
[15]; [24]
  IC50: 4.41 µM
[15]; NCI-H522, subsequent test date
  IC50: 0.42 µM
[16]; 48 h, Colon Cancer COLO-205
  IC50: 0.97 µM
[16]; COLO-205, subsequent test date
  IC50: 0.56 µM
[17]
  drug-induced CD bands, wavelength: 290-340 nm

## CN(C)CCNC(=O)c1nc(NC(=O)c2nc(NC(=O)CCCc3ccc(N(CCCl)CCCl)cc3)cn2C)cn1C [Compound 9, N-(N',N'-dimethylaminoethyl)-1-methyl-4-{4-[4,4-bis(2-chloroethyl)aminophenyl-1-butanamido]-1-methylimidazole-2-carboxamido}imidazole-2-carboxamide]
[3]; 48 h, CNS Cancer SF-295
  IC50: 51.9 µM
[4]; 48 h, CNS Cancer SF-539
  IC50: 47.9 µM
[5]; 48 h, Melanoma MALME-3M
  IC50: 56.3 µM
[6]; [18]
  IC50: 67.3 µM
[7]; [19]
  IC50: 47.9 µM
[8]; 48 h, Colon Cancer KM20L2
  IC50: 53.4 µM
[9]; 48 h, Colon Cancer SW-620
  IC50: 77.3 µM
[10]; [20]
  IC50: 43.5 µM
[11]; [21]
  IC50: 78.5 µM
[12]; 48 h, Leukemia Molt-4
  IC50: 71.3 µM
[15]; [24]
  IC50: 86.6 µM
[16]; 48 h, Colon Cancer COLO-205
  IC50: 81.6 µM
[17]; three polydeoxyribonucleotides, r' up to 0.8
  CD titration result in words: did not produce any notable changes in the CD spectra

## CN(C)CCNC(=O)c1nc(NC(=O)c2nc(NC(=O)c3nc(NC(=O)CCCc4ccc(N(CCCl)CCCl)cc4)cn3C)cn2C)cn1C [Compound 10, N-(N',N'-dimethylaminoethyl)-1-methyl-4-{1-methyl-4-[4-(4,4-bis(2-chloroethyl)aminophenyl-1-butanamido)-1-methylimidazole-2-carboxamido]imidazole-2-carboxamido}imidazole-2-carboxamide]
[1]; 48 h, CNS Cancer SF-268
  IC50: 31.3 µM
[2]; 48 h, Colon Cancer DLD-1
  IC50: 42.2 µM
[3]; 48 h, CNS Cancer SF-295
  IC50: 9.74 µM
[4]; 48 h, CNS Cancer SF-539
  IC50: 6.13 µM
[5]; 48 h, Melanoma MALME-3M
  IC50: 52.7 µM
[6]; [18]
  IC50: 34.8 µM
[7]; [19]
  IC50: 67.5 µM
[8]; 48 h, Colon Cancer KM20L2
  IC50: 8.63 µM
[9]; 48 h, Colon Cancer SW-620
  IC50: 9.3 µM
[10]; [20]
  IC50: 6.13 µM
[11]; [21]
  IC50: 10.7 µM
[12]; 48 h, Leukemia Molt-4
  IC50: 3.19 µM
[13]; 48 h, CNS Cancer XF498
  IC50: 5.79 µM
[14]; [23]
  IC50: 7.49 µM
[15]; [24]
  IC50: 6.77 µM
[16]; 48 h, Colon Cancer COLO-205
  IC50: 11.4 µM
[17]; induced band for poly(dG.dC) vs poly(dA.dT)
  binding preference from CD titration: binds more strongly to GC rich sequences of DNA
